Values belong to the molecule of their own block, whether it stands above or below them.
What was measured:
Liver cytosol [1] = test: Drug metabolism in human liver cytosol at 20 uM assessed as (1R,2S,5S)-N-((2S,3R)-4-amino-1-cyclobutyl-3-hydroxy-4-oxobutan-2-yl)-3-((S)-2-(3-tert-butylureido)-3,3-dimethylbutanoyl)-6,6-dimethyl-3-azabicyclo[3.1.0]hexane-2-carboxamide formation at 20 uM after 60 mins in presence of AKR inhibitor diflunisal by LC-MS/MS/FSA method; assay type: ADME; conditions: 1 h
Liver cytosol [2] = test: (§1) Drug metabolism in human liver cytosol at 20 uM assessed as (1R,2S,5S)-N-((2S,3R)-4-amino-1-cyclobutyl-3-hydroxy-4-oxobutan-2-yl)-3-((S)-2-(3-tert-butylureido)-3,3-dimethylbutanoyl)-6,6-dimethyl-3-azabicyclo[3.1.0]hexane-2-carboxamide formation in presence of pargyline by LC-MS/MS/FSA method; assay type: ADME
Liver cytosol [3] = test: Drug metabolism in human liver cytosol at 20 uM assessed as (1R,2S,5S)-N-((2S,3R)-4-amino-1-cyclobutyl-3-hydroxy-4-oxobutan-2-yl)-3-((S)-2-(3-tert-butylureido)-3,3-dimethylbutanoyl)-6,6-dimethyl-3-azabicyclo[3.1.0]hexane-2-carboxamide formation in presence of quercetin by LC-MS/MS/FSA method; assay type: ADME
Cytochrome P450 4F12 = molecular target: T1, Cytochrome P450 4F12 (Homo sapiens, UniProt Q9HCS2); test: Drug metabolism assessed as human CYP4F12-mediated compound formation from 5 to 20 uM [14C]boceprevir after 120 mins by LC-MS/FSA method relative to total [14C]boceprevir; assay type: ADME; conditions: recombinant enzyme, 2 h
T1 sequence (Q9HCS2 whole entry): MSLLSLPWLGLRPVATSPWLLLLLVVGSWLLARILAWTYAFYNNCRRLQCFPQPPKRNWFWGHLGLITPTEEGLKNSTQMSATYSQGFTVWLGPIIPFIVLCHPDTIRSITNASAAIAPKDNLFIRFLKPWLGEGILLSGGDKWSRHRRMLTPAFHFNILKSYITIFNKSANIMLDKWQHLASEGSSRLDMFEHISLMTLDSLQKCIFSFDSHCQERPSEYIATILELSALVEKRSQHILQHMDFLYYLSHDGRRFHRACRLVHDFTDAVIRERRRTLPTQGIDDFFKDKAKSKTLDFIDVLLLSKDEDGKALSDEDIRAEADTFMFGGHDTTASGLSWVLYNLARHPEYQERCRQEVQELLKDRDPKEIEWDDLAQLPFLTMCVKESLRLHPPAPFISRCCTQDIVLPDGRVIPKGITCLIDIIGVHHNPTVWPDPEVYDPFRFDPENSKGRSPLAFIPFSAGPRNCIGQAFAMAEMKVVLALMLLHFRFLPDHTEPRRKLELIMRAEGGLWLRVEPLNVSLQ

[4] = as §1, with “S9 fraction” for “cytosol”, “flufenamic acid” for “pargyline”; assay type: ADME, subcellular; conditions: s9, 20 µM
[5] = Drug excretion in human feces; assay type: ADME; parameters: dosed compound name [14C]boceprevir
[6] = molecular target: T2, Aldo-keto reductase family 1 member C2 (Homo sapiens, UniProt P52895); test: Drug metabolism in human recombinant AKR1C2 expressing HEK293 cells treated with 20 uM boceprevir assessed as 100 uM flufenamic acid-mediated inhibition of AKR1C2-mediated metabolite formation after 120 mins in presence of NADPH by LC-MS/MS/FSA method; assay type: ADME, cell-based; parameters: interact cpd dose 100 uM; conditions: hek293, 2 h
T2 sequence (P52895 whole entry): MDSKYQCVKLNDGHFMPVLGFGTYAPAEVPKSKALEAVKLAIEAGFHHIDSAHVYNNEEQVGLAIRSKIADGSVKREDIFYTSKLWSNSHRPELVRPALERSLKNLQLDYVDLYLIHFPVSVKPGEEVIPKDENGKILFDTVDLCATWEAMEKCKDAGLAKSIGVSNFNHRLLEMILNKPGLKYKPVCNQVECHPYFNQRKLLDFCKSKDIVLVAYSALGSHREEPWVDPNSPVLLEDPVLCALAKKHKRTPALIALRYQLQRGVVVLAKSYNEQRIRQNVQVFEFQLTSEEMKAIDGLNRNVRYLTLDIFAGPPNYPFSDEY

Liver cytosol [7] = test: Drug metabolism in human liver cytosol treated with 20 uM [14C]boceprevir assessed as quercetin-mediated inhibition of metabolite formation by LC-MS/MS/FSA method; assay type: ADME, tissue-based
[8] = molecular target: T3, Aldo-keto reductase family 1 member C3 (Homo sapiens, UniProt P42330); test: Drug metabolism in human recombinant […] HEK293 cells treated with 20 uM boceprevir assessed as 1 mM ibuprofen-mediated inhibition of AKR1C3-mediated metabolite formation after 120 mins in presence of NADPH by LC-MS/MS/FSA method; assay type: ADME, cell-based; parameters: interact cpd dose 1 mM; conditions: hek293, 2 h
T3 sequence (P42330 whole entry): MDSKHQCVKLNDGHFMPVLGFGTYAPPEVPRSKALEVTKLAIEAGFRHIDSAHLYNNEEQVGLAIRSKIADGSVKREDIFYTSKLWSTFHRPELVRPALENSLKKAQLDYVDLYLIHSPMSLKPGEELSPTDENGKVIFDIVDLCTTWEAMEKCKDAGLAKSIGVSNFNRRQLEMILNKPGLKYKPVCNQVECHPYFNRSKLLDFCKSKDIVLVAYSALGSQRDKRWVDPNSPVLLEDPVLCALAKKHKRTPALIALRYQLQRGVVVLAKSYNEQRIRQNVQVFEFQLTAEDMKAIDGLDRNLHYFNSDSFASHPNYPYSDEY

Liver cytosol [9] = test: Drug metabolism in human liver cytosol at 20 uM assessed as (1R,2S,5S)-N-((2R,3R)-4-amino-1-cyclobutyl-3-hydroxy-4-oxobutan-2-yl)-3-((S)-2-(3-tert-butylureido)-3,3-dimethylbutanoyl)-6,6-dimethyl-3-azabicyclo[3.1.0]hexane-2-carboxamide formation at 20 uM after 60 mins in presence of AKR inhibitor ibuprofen by LC-MS/MS/FSA method; assay type: ADME; conditions: 1 h

Compound recovery (Liver cytosol [1]): metabolite_not_detected | Compound recovery (Liver cytosol [2]): metabolite_detected | Compound recovery (Liver cytosol [3]): metabolite_not_detected | Compound recovery (Cytochrome P450 4F12): metabolite_not_detected | Compound recovery [4]: metabolite_not_detected | Radiolabel recovery [5]: 79%
SMILES: CC(C)(C)NC(=O)N[C@H](C(=O)N1C[C@H]2[C@@H]([C@H]1C(=O)NC(CC1CCC1)C(=O)C(N)=O)C2(C)C)C(C)(C)C (stereo not given in full) [BOCEPREVIR]

inhibition (INH) [6]: > 89% | inhibition (INH) (Liver cytosol [7]): < 30% | inhibition (INH) [8]: 55%
SMILES: CC(C)(C)NC(=O)N[C@H](C(=O)N1C[C@H]2[C@@H]([C@H]1C(=O)N[C@@H](CC1CCC1)[C@@H](O)C(N)=O)C2(C)C)C(C)(C)C

Compound recovery (Liver cytosol [9]): metabolite_not_detected
SMILES: CC(C)(C)NC(=O)N[C@H](C(=O)N1C[C@H]2[C@@H]([C@H]1C(=O)N[C@H](CC1CCC1)C(=O)C(N)=O)C2(C)C)C(C)(C)C
